Measured values from patent US11045480B2, “Anti-huLRRC15 antibody drug conjugates and methods for their use” (AbbVie Inc., priority 2015, dated 2021).

Assays:
Assay type in all cases: in vivo, mouse
[1] = test system: NCI-H1650 (NSCLC) xenograft; experiment: NCI-H1650 xenograft tumor growth
Method: The potency of anti-huLRRC15 ADCs as compared to current standards of care was assessed in xenograft models with NCI-H1650 ([…]), HN5 (head and neck), EBC-1 (squamous NSCLC), NW231 (breast) and PANC1 (pancreatic) cancer cells. […] For FIG. 20A, NCI-H1650 cells (5 million cells) were implanted subcutaneously into SCID/Beige mice and tumors were randomized when they reached ˜200 mm^3 and dosed with biologics at 6 or 12 mg/kg intraperitoneally on a Q4D×6 (one dose given every 4 days for a total of 6 doses), while erlotinib was dosed orally daily for 10 days at 100 mg/kg, and carboplatin was dosed intraperitoneally Q4D×4 (one dose given every 4 days for a total of 4 doses) at 50 mg/kg.
NCI-H1650 NSCLC cancer cells (5 million) were implanted subcutaneously into SCID/Beige mice, and mice were randomized when the tumors reached ˜200 mm^3 and dosed with biologics at 6 or 12 mg/kg intraperitoneally on a Q4D×6 (one dose given every 4 days for a total of 6 doses), while erlotinib was dosed orally daily at 100 mg/kg for 10 doses.
NCI-H1650 NSCLC cancer cells (5 million) were implanted subcutaneously into SCID/Beige mice, and mice were randomized when the tumors reached ˜200 mm^3 and dosed on day 0 with isotype or ADC at 0.1, 0.3, or 0.6 mg/kg intraperitoneally.
NCI-H1650 adeno NSCLC cells (5 million) were implanted subcutaneously into SCID/Beige mice, and mice were randomized when the tumors reached ˜225 mm^3 and dosed with ADC at 0.6 mg/kg or isotype antibody at 12 mg/kg intraperitoneally once on day 0.

[2] = test system: EBC-1 (human squamous NSCLC) xenograft; experiment: EBC-1 xenograft tumor growth
Method: For the experiments, five million cells (EBC-1) that were grown in vitro were inoculated subcutaneously per mouse into the right flank of female SCID-Beige mice. Tumors were size matched at ˜200 mm^3, and dosed intraperitoneally (IP) Q4D×6 (1 dose given every 4 days for a total of 6 doses) as shown in FIG. 13A. Measurements of the length (L) and width (W) of the tumors were taken via electronic caliper and the volume was calculated according to the following equation: V=L×W^2/2.
For this experiment, tumors were size matched at ˜200 mm^3, and dosed intraperitoneally (IP) Q7D×2 (1 dose given every 7 days for a total of 2 doses) as shown in FIG. 13C. […]
5 million cells were implanted subcutaneously into SCID/Beige mice, and mice were randomized when tumor group mean volumes reached ˜200 mm^3.
In FIG. 20C, EBC1 cells (5 million) were implanted subcutaneously into SCID/Beige mice and mice were randomized when the tumors reached ˜200 mm^3 and dosed with biologics at 6 mg/kg intraperitoneally on a Q7D×2 (one dose given every 7 days for a total of 2 doses), while erlotinib was dosed orally daily for 10 days at 50 mg/kg, and carboplatin was dosed intraperitoneally Q4D×3 (one dose given every 4 days for a total of 3 doses) at 50 mg/kg.
In FIG. 21B, EBC-1 squamous NSCLC cells (5 million) were implanted subcutaneously into SCID/Beige mice, and mice were randomized when the tumors reached ˜200 mm^3 and dosed with biologics at 6 mg/kg intraperitoneally on a Q7D×2 (one dose given every 7 days for a total of 2 doses), while gemcitabine was dosed intraperitoneally at 100 mg/kg (Q3D×3) (one dose given every three days for 3 doses total).

[3] = test system: EBC-1 (human squamous NSCLC) xenograft; experiment: EBC-1 xenograft tumor growth; conditions: EBC-1, SCID/Beige mice; huM25-vcMMAE-E2 at 3 mg/kg (method: biologics 6 mg/kg IP Q7D×2); method: gemcitabine 100 mg/kg IP Q3D×3, result sentence names docetaxel (FIG. 21B)
[4] = test system: PANC1 (pancreatic) xenograft; experiment: PANC1 xenograft tumor growth
Method: (§1) In FIG. 20E, PANC1 pancreatic cancer cells (10 million) were implanted subcutaneously into SCID mice, and mice were randomized when the tumors reached ˜125 mm^3 and dosed with biologics at 12 mg/kg intraperitoneally on a Q4D×6 (one dose given every 4 days for a total of 6 doses), while gemcitabine was dosed intraperitoneally at 100 mg/kg Q3D×4) (one dose given every three days for 4 doses total).

[5] = test system: HPAF-II (human pancreatic) xenograft; experiment: HPAF-II xenograft tumor growth
Method: For the experiment, 1 million cells (HPAF-II) that were grown in vitro were inoculated subcutaneously per mouse into the right flank of female SCID-Beige mice. Tumors were size matched at ˜200 mm^3, and dosed intraperitoneally (IP) Q4D×6 (1 dose given every 4 days for a total of 6 doses) as shown in FIG. 13B.
as §1, with “21A, HPAF-II” for “20E, PANC1”, “(1” for “(10”, “˜200” for “˜125”, “6” for “12”, “(Q3D×4)×2” for “Q3D×4)”, “per cycle, 2 cycles with 8 total doses given).” for “total).”

[6] = NCI-H1650, SCID/Beige mice, biologics 6 or 12 mg/kg IP Q4D×6, erlotinib 100 mg/kg orally daily ×10, carboplatin 50 mg/kg IP Q4D×4 (FIG. 20A, 22A)
[7] = NCI-H1650, ADC 6 or 12 mg/kg IP Q4D×6 plus erlotinib 100 mg/kg orally daily ×10 (FIG. 22A)
[8] = EBC1, SCID/Beige mice, biologics 6 mg/kg IP Q7D×2, erlotinib 50 mg/kg orally daily ×10, carboplatin 50 mg/kg IP Q4D×3 (FIG. 20C)
[9] = EBC-1, SCID-Beige mice, 6 mg/kg IP Q4D×6 (FIG. 13A)
[10] = EBC-1, ADC plus second agent of FIG. 21B (sentence: docetaxel; method and legend: gemcitabine)
[11] = ADC 6 mg/kg IP Q4D×6 plus gemcitabine 100 mg/kg IP (Q3D×4)×2 (FIG. 21A)
[12] = SCID mice, biologics 6 mg/kg IP Q4D×6, gemcitabine 100 mg/kg IP (Q3D×4)×2 (FIG. 21A)
[13] = SCID-Beige mice, 6 mg/kg IP Q4D×6 (FIG. 13B)

huM25-vcMMAE-E2: huM25 conjugated with maleimidocaproyl val-cit PABA MMAE, preparation enriched in DAR2 by HIC
TGD, single agent [1, 6]: 450% | TGImax, single agent [1, 6]: 92% | TGD, used adjunctively with erlotinib [1, 7]: > 538% | TGImax, used adjunctively with erlotinib [1, 7]: 92% | TGD [2, 8]: 129% | TGImax [2, 8]: 92% | maximum tumor growth inhibition (TGImax) [2, 9]: 97% | tumor growth delay (TGD) [2, 9]: 305% | TGD, single agent ([2]; EBC-1, SCID/Beige mice, huM25-vcMMAE-E2 at 3 mg/kg (method: biologics 6 mg/kg IP Q7D×2), method: gemcitabine 100 mg/kg IP Q3D×3, result sentence names docetaxel (FIG. 21B)): 144% | TGD, used adjunctively [2, 10]: 348% | TGImax, used adjunctively [2, 10]: 98% | TGImax, single agent [3]: 91% | TGImax ([4]; PANC1 (3+ huLRRC15 stromal positive, cancer negative) tumor model (FIG. 17B)): 94.4% | TGImax ([4]; PANC1, SCID mice, biologics 12 mg/kg IP Q4D×6, gemcitabine 100 mg/kg IP Q3D×4 (FIG. 20E)): 94% | TGD, used adjunctively with gemcitabine [5, 11]: 183% | TGImax, used adjunctively with gemcitabine [5, 11]: 85% | TGD, single agent [5, 12]: 57% | TGImax, single agent [5, 12]: 57% | TGImax [5, 13]: 76% | tumor growth delay [5, 13]: 133%
